In this assay the target is STAT6 activation. In words: STAT6 activation inhibition test (IL-4-induced alkaline phosphatase STAT6 reporter gene assay). It counts as cell-based, human. The conditions noted are these: concentration giving 50% suppression of alkaline phosphatase activity induced by IL-4 (1 ng/mL), 16 hours, 293 cells stably expressing STAT6 gene and STAT6 reporter gene. The procedure:
The inhibitory activity on STAT6 activation of the compound according to present invention was evaluated according to the following test.
1) Construction of the STAT6 Reporter Gene
The oligonucleotide of SEQ ID: 1 resuting from three STAT6 binding regions of the human immunoglobulin germline ε gene promoter linked togeter, and the complementary strand thereof were mixed, and after thermal denaturation and annealing, the 5′ and the 3′ ends were respectively cut with the restriction enzymes Kpn I (TaKaRa Shuzo Code No. 1068A) and Xba I (TaKaRa ShuzoCode No. 1093A), and the resulting fragment was cloned into the Kpn I/Xba I site of the pUG-BGH-PLAP vector (described in Molecular Pharmacology, 49: 860–873 1996). In addition, the TK promoter region of the herpesvirus for inducing general transcription factors was cloned into the Xba I/Hind III (TaKaRa ShuzoCode No. 1060A) site of the pUG-BGH-PLAP vector. Then, to collect a stable expression cell strain, the neomycin resistance gene, that is a PGK-neo expression cassette, was incorporated into the Sal I (TaKaRa Shuzo, Code No. 1080A) site of this vector. Cloning of the TK promoter and the PGK-neo expression cassette was carried out according to Molecular Pharmacology, 49: 860–873 1996.
2) Construction of the STAT6 Expression Vector
Using the oligonucleotide of SEQ ID: 2 containing the initiation codon of the STAT6 gene and the oligonucleotide of SEQ ID: 3 containing the stop codon, Total RNA was prepared from human peripheral blood cells with the RNeasy Mini kit (OIAGEN, Code No. 74104). Thereafter, a reverse transcription reaction was carried out with the Takara RNA LA PCR kit (TaKaRa Shuzo, Code No. RR012A) to prepare cDNA, and using the primers of SEQ ID: 2 and 3, a PCR reaction was carried out, to amplify the STAT6 gene.
PCR product was digested with EcoR I (TaKaRa Shuzo, Code No. 1040A) and Xho I (TaKaRa Shuzo, 1094A), thereafter, the digested fragment was isolated on an agarose gel. The isolated fragment was incorporated into the vector fragment derived from the EcoR I/Xho I digestion of the pcDNA3.1 (+) (invtrogen, Code No. U790-20) vector.
3) Transformation and Preparation of a Stable Expression Cell Strain
In a Falcon 6-well plate for tissue culture (Becton Dickinson, Code No. 35-3046), 3.0×10^5 of 293 cells derived from human embryo kidney (American Type Culture Collection) were distributed and cultured overnight. The STAT6 reporter gene (1.5 μg), the STAT6 gene (1.5 μg) that were prepared and lipofectamine (GIBCO BRL, Code No. 18324-012) (20 μL) were mixed in OPTI-MEM culture medium (GIBCO BRL, Code No. 31985-070) (0.3 mL), and allowed to stand at room temperature for 20 minutes. Thereafter, the OPTI-MEM culture medium (1.2 mL) was further added, OPTI-MEM culture medium not containing fetal calf serum was added to washed cells, which were cultured for 2 hours. A culture medium (1.5 mL) containing fetal calf serum was added, and the cells were cultured for 19 more hours. The culture was continued by exchanging the culture medium and adding Geneticin (SIGMA, Code No. G-5013) so as to obtain 1 mg/mL, and cells with drug tolerance were selected. The selected drug tolerant cells were suspended in a culture medium containing 1 mg/mL of Geneticin, and distributed in a 96-well microplate (Becton Dickinson, Code No. 35-3072) so as to obtain 0.5 cells/well to carrry out cloning, and the clones expressing alkaline phosphatase in response to IL-4 were collected.
4) STAT6 Activation Inhibition Test
Cells stably expressing the STAT6 gene and the STAT6 reporter gene, and expressing alkaline phosphatase in response to IL-4 were distributed in a 96-well microplate (Becton Dickinson, Code No. 35-3072) so as to obtain 5000 cells/180 μL/well, and cultured overnight. […]

For orientation: IC50 means the point on the concentration scale where inhibition reaches its midpoint. The low end stands for inhibition by little substance, the high end for a need for much substance.

Each structure is given as a SMILES string.

Compound `CN(CC(O)c1ccc(F)cc1)S(=O)(=O)c1csc2c1CCC/C2=N/O` (stereo not shown) [Example 1, (7Z)-7-Hydroxyimino-4,5,6,7-tetrahydro-benzo[b]thiophene-3-sulfonic acid[2-(4-fluorophenyl)-2-hydroxyethyl]-methyl-amide] came in with an IC50 of 1.13 nM.
As for `CN(CC(O)c1ccc(F)cc1)S(=O)(=O)c1csc2c1CCC/C2=N\O` (stereo not shown) [Example 2, (7E)-7-Hydroxyimino-4,5,6,7-tetrahydro-benzo[b]thiophene-3-sulfonic acid[2-(4-fluorophenyl)-2-hydroxyethyl]-methyl-amide], the IC50 amounted to 0.22 nM.
On the same count and under the same terms, then `CN(CCc1ccc(F)cc1)S(=O)(=O)c1csc2c1CCC/C2=N/O` [Example 3, (7Z)-7-Hydroxyimino-4,5,6,7-tetrahydro-benzo[b]thiophene-3-sulfonic acid[2-(4-fluorophenyl)-ethyl]-methyl-amide], with 0.6 nM; and `CN(CCc1ccc(F)cc1[N+](=O)[O-])S(=O)(=O)c1csc2c1CCC/C2=N/O` [Example 5, (7Z)-7-Hydroxyimino-4,5,6,7-tetrahydro-benzo[b]thiophene-3-sulfonic acid[2-(4-fluoro-2-nitro-Phenyl)-ethyl]-methyl-amide], with 21 nM; and `CN(CCc1ccc(F)c([N+](=O)[O-])c1)S(=O)(=O)c1csc2c1CCC/C2=N/O` [Example 6, (7Z)-7-Hydroxyimino-4,5,6,7-tetrahydro-benzo[b]thiophene-3-sulfonic acid[2-(4-fluoro-3-nitro-phenyl)-ethyl]-methyl-amide], with 4.9 nM.
For the setting “Homo sapiens, HEK293”, `CN(CCc1cccnc1)S(=O)(=O)c1csc2c1CCC/C2=N/O` [Example 7, (7Z)-7-Hydroxyimino-4,5,6,7-tetrahydro-benzo[b]thiophene-3-sulfonic acid methyl-(2-pyridine-3-yl-ethyl)-amide] gave an IC50 of 4.8 nM.
Same read-out and setting: to `CN(CCc1ccncc1)S(=O)(=O)c1csc2c1CCC/C2=N/O` [Example 9, (7Z)-7-Hydroxyimino-4,5,6,7-tetrahydro-benzo[b]thiophene-3-sulfonic acid methyl-(2-pyridine-4-yl-ethyl)-amide] belongs 0.82 nM; to `CN(C[C@@H](O)c1ccc(F)cc1)S(=O)(=O)c1csc2c1CCC/C2=N/O` [Example 13, (7Z)-N-[(2S)-2-(4-Fluorophenyl)-2-hydroxyethyl]-7-(hydroxyimino)-N-methyl-4,5,6,7-tetrahydro-1-benzothiophene-3-sulfonamide], 0.36 nM.
Still for that read-out and setting: to `CN(C[C@H](O)c1ccc(F)cc1)S(=O)(=O)c1csc2c1CCC/C2=N/O` [Example 14, (7Z)-N-[(2R)-2-(4-Fluorophenyl)-2-hydroxyethyl]-7-(hydroxyimino)-N-methyl-4,5,6,7-tetrahydro-1-benzothiophene-3-sulfonamide] belongs 30 nM.
Compound `CN(CC(O)c1ccc(F)cc1F)S(=O)(=O)c1csc2c1CCC/C2=N/O` (stereo not shown) [Example 17, (7Z)-7-Hydroxyimino-4,5,6,7-tetrahydro-benzo[b]thiophene-3-sulfonic acid[2-(2,4-difluorophenyl)-2-hydroxyethyl]-methyl-amide] gave an IC50 of 15.4 nM.
In the case of `CN(CC(O)c1ccncc1)S(=O)(=O)c1csc2c1CCC/C2=N/O` (stereo not shown) [Example 21, (7Z)-7-Hydroxyimino-4,5,6,7-tetrahydro-benzo[b]thiophene-3-sulfonic acid (2-hydroxy-2-pyridine-4-yl-ethyl)-methyl-amide], it took 5.6 nM to reach half-maximal inhibition (Homo sapiens, HEK293) (IC50).
`CN(CC(NC(N)=O)c1ccc(F)cc1)S(=O)(=O)c1csc2c1CCCC2=NO` (stereo not shown) [Example 25, 7-Hydroxyimino-4,5,6,7-tetrahydrobenzo[b]thiophene-3-sulfonic acid [(2-(4-fluorophenyl)-2-ureideethyl)]-methyl-amide] showed an IC50 of 13 nM.
Take `CN(CC(O)c1ccc(F)cc1)S(=O)(=O)c1c(N)sc2c1CCC/C2=N/O` (stereo not shown) [Example 26, (7Z)-2-Amino-7-hydroxyimino-4,5,6,7-tetrahydro-benzo[b]-thiophene-3-sulfonic acid [2-(4-fluorophenyl)-2-hydroxyethyl]-methyl-amide]: it took 2.6 nM to reach half-maximal inhibition (Homo sapiens, HEK293) (IC50).
On the same count and under the same terms, to `CN(CC(O)c1ccc(F)cc1)S(=O)(=O)c1c(N)sc2c1CCC/C2=N\O` (stereo not shown) [Example 27, (7E)-2-Amino-7-hydroxyimino-4,5,6,7-tetrahydro-benzo[b]-thiophene-3-sulfonic acid [2-(4-fluorophenyl)-2-hydroxyethyl]-methyl-amide] belongs 11 nM.
In turn, `CC1CCc2c(S(=O)(=O)N(C)CCc3ccc(F)cc3)csc2/C1=N\O` (stereo not shown) [Example 31, (7Z)-7-Hydroxyimino-6-methyl-4,5,6,7-tetrahydrobenzo[b]-thiophene-3-sulfonic acid[(2-(4-fluorophenyl)ethyl)]-methyl-amide] returned an IC50 of 4.3 nM.
Same read-out and setting: then `CC1CCc2c(S(=O)(=O)N(C)CC(O)c3ccc(F)cc3)csc2/C1=N\O` (stereo not shown) [Example 32, (7Z)-7-Hydroxyimino-6-methyl-4,5,6,7-tetrahydrobenzo[b]-thiophene-3-sulfonic acid[(2-(4-fluorophenyl)-2-hydroxyethyl)]-methyl-amide], with 10.1 nM; and `CN(CCc1ccc(F)cc1)S(=O)(=O)c1csc2c1CCC(O)/C2=N/O` (stereo not shown) [Example 33, (7Z)-6-Hydroxy-7-hydroxyimino-4,5,6,7-tetrahydrobenzo[b]-thiophene-3-sulfonic acid[(2-(4-fluorophenyl)ethyl)]-methyl-amide], with 11 nM; and `C/C(=N/O)c1ccc(S(=O)(=O)N(C)CCc2ccc(F)cc2)s1` [Example 37], with 30 nM.
On the same count and under the same terms, to `C/C(=N/O)c1cc(S(=O)(=O)N(C)CC(O)c2ccc(F)cc2)cs1` (stereo not shown) [Example 44] belongs 0.63 nM.
For the compound `CC(C)C(=NO)c1cc(S(=O)(=O)N(C)CCc2ccc(F)cc2)cs1` [Example 47, 5-(1-Hydroxyimino-2-methylpropyl)thiophene-3-sulfonic acid [2-(4-fluorophenyl)-ethyl]-methyl-amide], half-maximal inhibition (Homo sapiens, HEK293) (IC50) was put at 12 nM.
The compound `CC(C)C(=NO)c1cc(S(=O)(=O)N(C)CC(O)c2ccc(F)cc2)cs1` (stereo not shown) [Example 48, 5-(1-Hydroxyimino-2-methylpropyl)thiophene-3-sulfonic acid [2-(4-fluorophenyl)-2-hydroxyethyl]-methyl-amide] came in with an IC50 (Homo sapiens, HEK293) of 30 nM.
Consider `C/C(=N/O)c1cc(S(=O)(=O)N(C)CC(O)c2ccc(F)cc2)c(N)s1` (stereo not shown) [Example 52, 2-Amino-5-[(1Z)-hydroxyimino-ethyl]-thiophene-3-sulfonic acid [2-(4-fluorophenyl)-2-hydroxyethyl]-methyl-amide], for which the IC50 was 7.9 nM.
Still for that read-out and setting: then `C/C(=N/O)c1cc(S(=O)(=O)N(C)CCc2ccc(F)cc2)c(N)s1` [Example 60, 2-Amino-5-[(1Z)-hydroxyimino-ethyl]-thiophene-3-sulfonic acid [2-(4-fluorophenyl)-ethyl]-methyl-amide], with 1.6 nM.
On the same count and under the same terms, to `C/C(=N\O)c1cc(S(=O)(=O)N(C)CCc2ccc(F)cc2)c(N)s1` [Example 61, 2-Amino-5-[(1E)-hydroxyimino-ethyl]-thiophene-3-sulfonic acid [2-(4-fluorophenyl)-ethyl]-methyl-amide] belongs 66.7 nM.
Still for that read-out and setting: to `CC(C)/C(=N/O)c1cc(S(=O)(=O)N(C)CCc2ccc(F)cc2)c(N)s1` [Example 63, 2-Amino-5-[(1Z)-hydroxyimino-2-methylpropyl]thiophene-3-sulfonic acid[2-(4-fluorophenyl)ethyl]-methyl-amide] belongs 40 nM.

The values above are taken from patent US7217723B2, “Heterocyclic compound having oxime group” (Eisai Co., Ltd., priority 2004, dated 2007).
